In ChEMBL document CHEMBL5154747, “Discovery of new carbonic anhydrase IX inhibitors as anticancer agents by toning the hydrophobic and hydrophilic rims of the active site to encounter the dual-tail approach” (Eur J Med Chem, 2022):

What was measured:
Assay type in all cases: functional
Conditions in all cases: read-out: GI
HL-60(TB) = experiment: Anticancer activity against human HL-60(TB) cells assessed as cell growth inhibition at 10 uM incubated for 48 hrs by SRB assay relative to control
K562 = experiment: Anticancer activity against human K562 cells assessed as cell growth inhibition at 10 uM incubated for 48 hrs by SRB assay relative to control
MOLT-4 = experiment: Anticancer activity against human MOLT-4 cells assessed as cell growth inhibition at 10 uM incubated for 48 hrs by SRB assay relative to control
EKVX = experiment: Anticancer activity against human EKVX cells assessed as cell growth inhibition at 10 uM incubated for 48 hrs by SRB assay relative to control
HOP-62 = experiment: Anticancer activity against human HOP-62 cells assessed as cell growth inhibition at 10 uM incubated for 48 hrs by SRB assay relative to control
NCI-H322M = experiment: Anticancer activity against human NCI-H322M cells assessed as cell growth inhibition at 10 uM incubated for 48 hrs by SRB assay relative to control
COLO 205 = experiment: Anticancer activity against human COLO 205 cells assessed as cell growth inhibition at 10 uM incubated for 48 hrs by SRB assay relative to control
SF-295 = experiment: Anticancer activity against human SF-295 cells assessed as cell growth inhibition at 10 uM incubated for 48 hrs by SRB assay relative to control
SNB-19 = experiment: Anticancer activity against human SNB-19 cells assessed as cell growth inhibition at 10 uM incubated for 48 hrs by SRB assay relative to control
U-251 = experiment: Anticancer activity against human U-251 cells assessed as cell growth inhibition at 10 uM incubated for 48 hrs by SRB assay relative to control
SK-MEL-28 = experiment: Anticancer activity against human SK-MEL-28 cells assessed as cell growth inhibition at 10 uM incubated for 48 hrs by SRB assay relative to control
UACC-62 = experiment: Anticancer activity against human UACC-62 cells assessed as cell growth inhibition at 10 uM incubated for 48 hrs by SRB assay relative to control
OVCAR-5 = experiment: Anticancer activity against human OVCAR-5 cells assessed as cell growth inhibition at 10 uM incubated for 48 hrs by SRB assay relative to control
OVCAR-8 = experiment: Anticancer activity against human OVCAR-8 cells assessed as cell growth inhibition at 10 uM incubated for 48 hrs by SRB assay relative to control
786-0 = experiment: Anticancer activity against human 786-0 cells assessed as cell growth inhibition at 10 uM incubated for 48 hrs by SRB assay relative to control
RXF 393 = experiment: Anticancer activity against human RXF 393 cells assessed as cell growth inhibition at 10 uM incubated for 48 hrs by SRB assay relative to control
TK-10 = experiment: Anticancer activity against human TK-10 cells assessed as cell growth inhibition at 10 uM incubated for 48 hrs by SRB assay relative to control
DU-145 = experiment: Anticancer activity against human DU-145 cells assessed as cell growth inhibition at 10 uM incubated for 48 hrs by SRB assay relative to control
BT-549 = experiment: Anticancer activity against human BT-549 cells assessed as cell growth inhibition at 10 uM incubated for 48 hrs by SRB assay relative to control
OVCAR-4 = experiment: Anticancer activity against human OVCAR-4 cells assessed as cell growth inhibition at 10 uM incubated for 48 hrs by SRB assay relative to control

NS(=O)(=O)c1ccc(Nc2nc(N/N=C/C=C/c3ccccc3)nc(Nc3ccccc3)n2)cc1
inhibition of growth at 10 µM (HL-60(TB)): 61%
inhibition of growth at 10 µM (K562): 72%
inhibition of growth at 10 µM (MOLT-4): 87%
inhibition of growth at 10 µM (EKVX): 28%
inhibition of growth at 10 µM (HOP-62): 43%
inhibition of growth at 10 µM (NCI-H322M): 43%
inhibition of growth at 10 µM (COLO 205): 44%
inhibition of growth at 10 µM (SF-295): 55%
inhibition of growth at 10 µM (SNB-19): 51%
inhibition of growth at 10 µM (U-251): 48%
inhibition of growth at 10 µM (SK-MEL-28): 39%
inhibition of growth at 10 µM (UACC-62): 33%
inhibition of growth at 10 µM (OVCAR-5): < 10%
inhibition of growth at 10 µM (OVCAR-8): 50%
inhibition of growth at 10 µM (786-0): 62%
inhibition of growth at 10 µM (RXF 393): 108%
inhibition of growth at 10 µM (TK-10): 13%
inhibition of growth at 10 µM (DU-145): 57%
inhibition of growth at 10 µM (BT-549): 34%
inhibition of growth at 10 µM (OVCAR-4): 50%

NS(=O)(=O)c1ccc(Nc2nc(N/N=C/c3ccc([N+](=O)[O-])cc3)nc(Nc3ccccc3)n2)cc1
inhibition of growth at 10 µM (HL-60(TB)): 64%
inhibition of growth at 10 µM (K562): 79%
inhibition of growth at 10 µM (MOLT-4): 88%
inhibition of growth at 10 µM (EKVX): 16%
inhibition of growth at 10 µM (HOP-62): 90%
inhibition of growth at 10 µM (NCI-H322M): 60%
inhibition of growth at 10 µM (COLO 205): 76%
inhibition of growth at 10 µM (SF-295): 42%
inhibition of growth at 10 µM (SNB-19): 79%
inhibition of growth at 10 µM (U-251): 81%
inhibition of growth at 10 µM (SK-MEL-28): 64%
inhibition of growth at 10 µM (UACC-62): 54%
inhibition of growth at 10 µM (OVCAR-5): 18%
inhibition of growth at 10 µM (OVCAR-8): 66%
inhibition of growth at 10 µM (786-0): 91%
inhibition of growth at 10 µM (RXF 393): 105%
inhibition of growth at 10 µM (TK-10): < 10%
inhibition of growth at 10 µM (DU-145): 56%
inhibition of growth at 10 µM (BT-549): 81%
inhibition of growth at 10 µM (OVCAR-4): 44%

NNc1nc(Nc2ccccc2)nc(Nc2ccc(S(N)(=O)=O)cc2)n1
inhibition of growth at 10 µM (HL-60(TB)): < 10%
inhibition of growth at 10 µM (K562): < 10%
inhibition of growth at 10 µM (MOLT-4): 81%
inhibition of growth at 10 µM (EKVX): < 10%
inhibition of growth at 10 µM (HOP-62): < 10%
inhibition of growth at 10 µM (NCI-H322M): < 10%
inhibition of growth at 10 µM (COLO 205): < 10%
inhibition of growth at 10 µM (SF-295): < 10%
inhibition of growth at 10 µM (SNB-19): < 10%
inhibition of growth at 10 µM (U-251): < 10%
inhibition of growth at 10 µM (SK-MEL-28): < 10%
inhibition of growth at 10 µM (UACC-62): < 10%
inhibition of growth at 10 µM (OVCAR-5): < 10%
inhibition of growth at 10 µM (OVCAR-8): < 10%
inhibition of growth at 10 µM (786-0): < 10%
inhibition of growth at 10 µM (RXF 393): < 10%
inhibition of growth at 10 µM (TK-10): < 10%
inhibition of growth at 10 µM (DU-145): < 10%
inhibition of growth at 10 µM (BT-549): < 10%
inhibition of growth at 10 µM (OVCAR-4): < 10%

NS(=O)(=O)c1ccc(Nc2nc(N/N=C/c3cccs3)nc(Nc3ccccc3)n2)cc1
inhibition of growth at 10 µM (HL-60(TB)): 29%
inhibition of growth at 10 µM (K562): 39%
inhibition of growth at 10 µM (MOLT-4): 42%
inhibition of growth at 10 µM (EKVX): 24%
inhibition of growth at 10 µM (HOP-62): 15%
inhibition of growth at 10 µM (NCI-H322M): 23%
inhibition of growth at 10 µM (COLO 205): 18%
inhibition of growth at 10 µM (SF-295): 23%
inhibition of growth at 10 µM (SNB-19): < 10%
inhibition of growth at 10 µM (U-251): < 10%
inhibition of growth at 10 µM (SK-MEL-28): 20%
inhibition of growth at 10 µM (UACC-62): 24%
inhibition of growth at 10 µM (OVCAR-5): 19%
inhibition of growth at 10 µM (OVCAR-8): 29%
inhibition of growth at 10 µM (786-0): 13%
inhibition of growth at 10 µM (RXF 393): 52%
inhibition of growth at 10 µM (TK-10): < 10%
inhibition of growth at 10 µM (DU-145): 40%
inhibition of growth at 10 µM (BT-549): 22%
inhibition of growth at 10 µM (OVCAR-4): 29%

NS(=O)(=O)c1ccc(Nc2nc(N/N=C/c3ccc(F)cc3)nc(Nc3ccccc3)n2)cc1
inhibition of growth at 10 µM (HL-60(TB)): 39%
inhibition of growth at 10 µM (K562): 45%
inhibition of growth at 10 µM (MOLT-4): 78%
inhibition of growth at 10 µM (EKVX): 37%
inhibition of growth at 10 µM (HOP-62): 82%
inhibition of growth at 10 µM (NCI-H322M): 41%
inhibition of growth at 10 µM (COLO 205): 79%
inhibition of growth at 10 µM (SF-295): 29%
inhibition of growth at 10 µM (SNB-19): 30%
inhibition of growth at 10 µM (U-251): 88%
inhibition of growth at 10 µM (SK-MEL-28): 36%
inhibition of growth at 10 µM (UACC-62): 39%
inhibition of growth at 10 µM (OVCAR-5): 24%
inhibition of growth at 10 µM (OVCAR-8): 70%
inhibition of growth at 10 µM (786-0): 41%
inhibition of growth at 10 µM (RXF 393): 42%
inhibition of growth at 10 µM (TK-10): 98%
inhibition of growth at 10 µM (DU-145): 68%
inhibition of growth at 10 µM (BT-549): 32%
inhibition of growth at 10 µM (OVCAR-4): 44%
